Reference: PMC10857328, “Utilization of Biopolymer-Based Lutein Emulsion as an Effective Delivery System to Improve Lutein Bioavailability in Neonatal Rats” (Nutrients, 2024)

Experiments:
[1] = Acute dosing study: tissue lutein profiles; type: in vivo, neonatal Sprague-Dawley rats; conditions: single oral dose, 10 mg/kg, free lutein or emulsion
Description: To determine the bioavailability of lutein in neonatal Sprague-Dawley rats, an acute dosing study was conducted. The procedure was approved by the Institutional Animal Care and Use Committee of the University of Alabama (Number: 21-08-4864, 23 September 2021). On postnatal day 10 (P10), neonatal rats were randomly selected from litters and received a single dose of either free lutein (i.e., lutein ester dissolved in olive oil) or lutein emulsion, both containing 10 mg/kg body weight of lutein. The dose was administered to the pup’s mouth via a pipette. The concentration of lutein ester in the oil phase was 0.004 g/mL. The lutein dosage was selected based on our pilot study and previous studies. It is higher than the dosage used in human newborns but is considered acceptable and safe to be used in pharmacokinetic studies in rodent models. At 0.5 h, 1 h, 2 h, 4 h, 6 h, 12 h, and 24 h after dosing, pups (n = 3/time point/group) were euthanized, and blood, liver, spleen, brain, and eye were collected. Serum was obtained by centrifuging blood samples and tissues were stored at −80 °C until time of analysis. A group of rat pups (n = 3) not receiving treatments were used to measure the baseline lutein concentrations. Throughout the study, maternal rats consumed a purified diet with no lutein (D19120501, Research Diets Inc, New Brunswick, NJ, USA) (Table 1).
Serum and tissue lutein concentration was determined using an ultra-performance liquid chromatography (UPLC) system (Waters, Milford, MA, USA) equipped with a photo-diode array detector (PDA)/MS/MS, according to our well-established methods with slight modification. As for the serum, 100 μL of the sample was incubated with 2 mL of 100% ethanol at room temperature for an hour for lipid extraction. For the tissues, ~0.1 g of the sample was weighed, homogenized, and incubated with 2 mL of 100% ethanol at room temperature for an hour. An amount of 1 mL of 5% (w/v) potassium hydroxide was added to the sample and incubated in a water bath at 60 °C for 45 min for saponification. […]

[2] = Daily dosing studies: body and tissue weights, observable illness; type: in vivo, neonatal Sprague-Dawley rats; conditions: daily oral administration, 2 mg/kg, P5-P18, both daily dosing studies
Description: To determine the effects of daily consumption of CTA-stabilized lutein emulsion on tissue lutein status, two daily dosing studies were conducted. The procedures were approved by the Institutional Animal Care and Use Committee of the University of Alabama (Number: 21-02-4373, 4 February 2021). For daily dosing study 1 (Figure 1B), on P5, rat pups (n = 8–9/group) were randomly selected from the litters and received an oral dose of either free lutein (i.e., lutein ester dissolved in olive oil) or lutein emulsion both containing 2 mg/kg body weight of lutein. […] Dosing was repeated daily until P18. The dosage was determined from previous research in both rodent and human newborns and was also established as an Acceptable Daily Intake for lutein by the Joint Food and Agricultural Organization/World Health Organization. On P19, pups were euthanized. Rats are known to wean between P19 and P21 [47]. Blood from vena cava, liver, spleen, brain, eye, kidney, lung, white adipose tissue (WAT), and brown adipose tissue (BAT) were collected. Blood samples were centrifuged to obtain serum. Serum and collected tissues were frozen at −80 °C until analysis.
To mimic the human dietary intake of lutein, daily dosing study 2 was conducted (Figure 1C). […]

- Earliest time point for lutein to be detectable in brain [1]: 12 h
- Earliest time point for lutein to be detectable in eye [1]: 24 h
- Earliest time point for lutein to be detectable in spleen [1]: 6 h
- Observable illness in the pups [2]: no observable illness
SMILES: CC1=C[C@H](O)CC(C)(C)[C@H]1/C=C/C(C)=C/C=C/C(C)=C/C=C/C=C(C)/C=C/C=C(C)/C=C/C1=C(C)C[C@@H](O)CC1(C)C [lutein, Lutein]
